Experimental data reported in patent US20240262812A1, “N-SUBSTITUTED PHENYLSULFONAMIDE COMPOUND AND USE THEREOF” (Shanghai Leado Pharmatech Co., Ltd., priority 2021, published 2024).

Molecular target: T1, mTRPA1 (Mus musculus, UniProt Q8BLA8)
T1 construct: expressed in transfected cells
Experiment: IonWorks Barracuda (IWB) automated patch clamp, TRPA1 inhibitory activity
Format: cell-based
Details: HEK293 cells stably expressing mTRPA1, current induced by AITC, amplitude at +100 mV; read-out: IC50 (inhibition activity on TRPA1)
Method: In this example, the inhibitory activity of the compounds prepared in some examples of the present invention on transient receptor potential channel protein ankyrin 1 (TRPA1) was tested. Among them, compound of formula A (WO2010075353) was used as the positive control compound: […]
Test method using IonWorks Barracuda (IWB) automated patch clamp detection: HEK293 cells stably expressing mTRPA1 were placed in the T175 culture flask with DMEM medium containing 15 µg/mL Blasticidin S HCl, 200 µg/mL Hygromycin B and 10% FBS, and cultured in 37° C., 5% CO2 incubator. When the cell density reached about 80%, the culture medium was removed, washed once with phosphate buffered saline (PBS) without calcium and magnesium. 3 mL of Trypsin was added to digest for 2 min, 7 mL of culture solution was added to terminate the digestion. The cells were collected to 15 mL centrifuge tube and centrifuged at 800 rpm for 3 min. After the supernatant was removed, the cells were added to appropriate volume of extracellular fluid for re-suspending, and the cell density was controlled at 2-3×10^6/mL for use in IWB experiment. Extracellular fluid formulation (in mM): 140 NaCl, 5 KCl, 1 MgCl2, 10 HEPES, 0.5 EGTA, 10 Glucose (pH 7.4); intracellular fluid formulation (in mM): 140 CsCl, 10 HEPES, 5 EGTA, 0.1 CaCl2, 1 MgCl2 (pH 7.2). 28 mg/mL of amphotericin B was freshly prepared with DMSO on the day of experiment, and then final concentration of 0.1 mg/mL was prepared with intracellular fluid.
Population patch clamp (PPC) plate was used in IWB experiment. The entire detection process was automatically carried out by the instrument, that is, extracellular fluid was added into 384 wells of PPC plate, and after intracellular fluid was added under PPC plate (in plenum), 6 µL of cell fluid was added for sealing test, and finally the intracellular fluid in plenum was replaced with intracellular fluid containing amphotericin B to establish a whole-cell recording mode after perforating sealed cells. The sampling frequency for recording TPRA1 current was 10 kHz, the cells were clamped at 0 mV, the voltage stimulation command (channel protocol) was a ramp voltage from −100 mV to +100 mV for 300 ms. This voltage stimulation was applied every 10 s, mTRPA1 current was induced by 300 µM AITC.
Data recording and current amplitude measurement export were carried out by IWB software (version 2.5.3, Molecular Devices Corporation, Union City, CA). No statistics was recorded for holes with sealing impedance lower than 20 MΩ. The original current data was corrected by software for leak subtraction. TRPA1 current amplitude was measured at +100 mV. […] If IC50 value of HC030031 exceeded 3 times of the average IC50 value previously obtained on each plate, it would be re-tested. The dose-effect curve of compounds and IC50 were fitted and calculated by GraphPad Prism 5.02 (GraphPad Software, San Diego, CA).
Some compounds of the present invention were subjected to IC50 inhibition activity test using the IonWorks Barracuda (IWB) automated patch clamp detection method.

T1 sequence (Q8BLA8 whole entry): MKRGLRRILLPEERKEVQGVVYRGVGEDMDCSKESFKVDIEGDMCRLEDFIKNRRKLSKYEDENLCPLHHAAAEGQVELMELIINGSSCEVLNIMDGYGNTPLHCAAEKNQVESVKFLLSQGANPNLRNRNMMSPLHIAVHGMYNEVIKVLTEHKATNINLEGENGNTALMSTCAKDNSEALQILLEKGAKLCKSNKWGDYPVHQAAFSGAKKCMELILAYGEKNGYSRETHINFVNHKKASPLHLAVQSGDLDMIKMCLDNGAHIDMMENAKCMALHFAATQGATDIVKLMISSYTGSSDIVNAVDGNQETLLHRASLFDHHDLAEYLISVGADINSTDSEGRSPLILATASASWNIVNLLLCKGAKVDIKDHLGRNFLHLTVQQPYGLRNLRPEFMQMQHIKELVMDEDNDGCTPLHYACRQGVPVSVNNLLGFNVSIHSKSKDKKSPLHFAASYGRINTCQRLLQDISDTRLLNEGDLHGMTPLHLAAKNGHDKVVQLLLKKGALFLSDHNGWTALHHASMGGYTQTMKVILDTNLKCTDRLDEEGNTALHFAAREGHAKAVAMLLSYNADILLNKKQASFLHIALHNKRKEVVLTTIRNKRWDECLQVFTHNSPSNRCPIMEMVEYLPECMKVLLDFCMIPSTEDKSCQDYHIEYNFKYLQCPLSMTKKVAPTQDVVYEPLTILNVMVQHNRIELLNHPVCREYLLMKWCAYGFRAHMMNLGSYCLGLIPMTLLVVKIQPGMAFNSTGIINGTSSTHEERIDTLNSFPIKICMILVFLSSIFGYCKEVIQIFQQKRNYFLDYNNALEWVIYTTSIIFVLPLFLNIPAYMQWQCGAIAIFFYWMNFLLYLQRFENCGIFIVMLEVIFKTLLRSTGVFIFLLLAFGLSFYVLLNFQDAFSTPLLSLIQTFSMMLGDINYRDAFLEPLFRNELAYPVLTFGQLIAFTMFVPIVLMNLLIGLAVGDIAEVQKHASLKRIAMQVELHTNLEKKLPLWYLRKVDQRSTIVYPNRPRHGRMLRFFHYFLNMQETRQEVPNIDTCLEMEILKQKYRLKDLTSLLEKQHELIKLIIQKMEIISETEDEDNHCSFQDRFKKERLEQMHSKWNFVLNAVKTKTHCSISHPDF

| Structure (SMILES) | IC50 [µM] |
| --- | --- |
| CNCc1ccc(-c2c(C)n[nH]c2C)c(NS(=O)(=O)c2ccccc2)c1 [IA-58, N-(2-(3,5-dimethyl-1H-pyrazole-4-yl)-5-((methylamino)methyl)phenyl)benzenesulfonamide] | 50 to 100 |
| CNCc1ccc(NS(=O)(=O)c2cccnc2)c(-c2ccco2)c1 [IA-31, N-(2-(furan-2-yl)-4-((methylamino)methyl)phenyl)pyridine-3-sulfonamide] | 5 to 10 |
| CNCc1ccc(-c2cccs2)c(NS(=O)(=O)c2cccs2)c1 [IA-47, N-(2-(thiophene-2-yl)-5-((methylamino)methyl)phenyl)thiophene-2-sulfonamide] | 1 to 5 |
| CNCCc1ccc(NS(=O)(=O)c2ccsc2)c(-c2ccco2)c1 [IS, N-(2-(furan-2-yl)-4-(2-(methylamino)ethyl)phenyl)thiophene-3-sulfonamide] | 1 to 5 |
| NC(Cc1ccccc1)c1ccc(NS(=O)(=O)c2ccccc2)c(-c2ccco2)c1 (stereo not shown) [IU-8, N-(4-(1-amino-2-phenylethyl)-2-(furan-2-yl)phenyl)benzenesulfonamide] | 10 to 20 |
| CCNCc1ccc(NS(=O)(=O)c2ccsc2)c(-c2ccco2)c1 [IA-32, N-(4-((ethylamino)methyl)-2-(furan-2-yl)phenyl)thiophene-3-sulfonamide] | < 1 |
| CNCc1ccc(-c2ccco2)c(NS(=O)(=O)c2ccc(C)cc2)c1 [IA-10, 4-Methyl-N-(2-(furan-2-yl)-5-((methylamino)methyl)phenyl)benzenesulfonamide] | 1 to 5 |
| CNCc1ccc(-c2cc[nH]n2)c(NS(=O)(=O)c2ccccc2)c1 [IA-54, N-(5-((methylamino)methyl)-2-(1H-pyrazol-5-yl)phenyl)benzenesulfonamide] | 1 to 5 |
| CNCc1cc(NS(=O)(=O)c2ccccc2)cc(-c2ccco2)c1 [IA-39, N-(3-(furan-2-yl)-5-((methylamino)methyl)phenyl)benzenesulfonamide] | 20 to 50 |
| NCc1ccc(NS(=O)(=O)c2ccccc2)c(-c2ccco2)c1 [ID-4, N-(4-(aminomethyl)-2-(furan-2-yl)phenyl)benzenesulfonamide] | 1 to 5 |
| CNCc1ccc(-c2ccc[nH]2)c(NS(=O)(=O)c2ccccc2)c1 [IA-50, N-(5-((methylamino)methyl)-2-(1H-pyrrole-2-yl)phenyl)benzenesulfonamide] | 20 to 50 |
| CNCc1ccc(NS(=O)(=O)c2ccccc2F)c(-c2ccco2)c1 [IA-28, 2-Fluoro-N-(2-(furan-2-yl)-4-((methylamino)methyl)phenyl)benzenesulfonamide] | 1 to 5 |
| CNCc1ccc(-c2ccco2)c(NS(=O)(=O)c2ccc(Cl)cc2)c1 [IA-7] | 5 to 10 |
| CNCc1ccc(-c2cnn(C)c2)c(NS(=O)(=O)c2ccccc2)c1 [IA-56, N-(2-(1-methyl-1H-pyrazole-4-yl)-5-((methylamino)methyl)phenyl)benzenesulfonamide] | 10 to 20 |
| CNCc1ccc(NS(=O)(=O)c2cccs2)c(-c2ccco2)c1 [IA-29, N-(2-(furan-2-yl)-4-((methylamino)methyl)phenyl)thiophene-2-sulfonamide] | < 1 |
| CNCc1ccc(NS(=O)(=O)c2ccc(F)cc2)c(-c2ccco2)c1 [IA-27, 4-Fluoro-N-(2-(furan-2-yl)-4-((methylamino)methyl)phenyl)benzenesulfonamide] | 1 to 5 |

| Structure (SMILES) | IC50 [µM] |
| --- | --- |
| CNCc1ccc(-c2c(C)nn(C)c2C)c(NS(=O)(=O)c2ccccc2)c1 [IA-57, N-(5-((methylamino)methyl)-2-(1,3,5-trimethyl-1H-pyrazole-4-yl)phenyl) benzenesulfonamide] | 20 to 50 |
| CNCc1ccc(-c2cn[nH]c2)c(NS(=O)(=O)c2ccccc2)c1 [IA-52] | 20 to 50 |
| O=S(=O)(Nc1cc(/C=N\O)ccc1-c1ccco1)c1ccccc1 [IC-1, N-(2-(furan-2-yl)-5-((oximido)methyl)phenyl)benzenesulfonamide] | 20 to 50 |
| CNCc1ccc(NS(=O)(=O)c2ccccc2)c(-c2ccco2)c1 [IA-26, N-(2-(furan-2-yl)-4-((methylaamino)methyl)phenyl)benzenesulfonamide] | 1 to 5 |
| CNCc1ccc(-c2ccoc2)c(NS(=O)(=O)c2ccc(F)cc2)c1 [IA-41, 4-Fluoro-N-(2-(furan-3-yl)-5-((methylamino)methyl)phenyl)benzenesulfonamide] | 5 to 10 |
| CNCc1ccc(-c2ccco2)c(NS(=O)(=O)c2cccc(F)c2)c1 [IA-3, 3-Fluoro-N-(2-(furan-2-yl)-5-((methylamino)methyl)phenyl)benzenesulfonamide] | 1 to 5 |
| O=S(=O)(Nc1cc(CNCC(F)(F)F)ccc1-c1ccco1)c1ccccc1 [IA-25] | 20 to 50 |
| CNCc1ccc(-c2ccco2)c(NS(=O)(=O)c2ccc(Cl)nc2)c1 [IA-18, 6-Chloro-N-(2-(furan-2-yl)-5-((methylamino)methyl)phenyl)pyridine-3-sulfonamide] | 10 to 20 |
| O=S(=O)(Nc1cc(CNCC(F)(F)F)ccc1-c1ccco1)c1ccccc1 [IA-62] | 50 to 100 |
| CNCc1ccc(-c2ccco2)c(NS(=O)(=O)c2ccc(OC)cc2)c1 [IA-6, 4-Methoxy-N-(2-(furan-2-yl)-5-((methylamino)methyl)phenyl)benzenesulfonamide] | 5 to 10 |
| O=S(=O)(Nc1ccc(CNC2CCC2)cc1-c1ccco1)c1ccsc1 [IA-34, N-(4-((cyclobutylamino)methyl)-2-(furan-2-yl)phenyl)thiophene-3-sulfonamide] | 1 to 5 |
| CNCc1ccc(NS(=O)(=O)c2ccccc2)cc1-c1ccco1 [IA-36, N-(3-(furan-2-yl)-4-((methylamino)methyl)phenyl)benzenesulfonamide] | 20 to 50 |
| O=S(=O)(Nc1cc(C2CCCN2)ccc1-c1ccco1)c1ccccc1 (stereo not shown) [IW, N-(2-(furan-2-yl)-5-(pyrrolidin-2-yl)phenyl)benzenesulfonamide] | 1 to 5 |
| CNCc1ccc(-c2ccco2)c(NS(=O)(=O)c2ccccc2)c1 [IA-4, N-(2-(furan-2-yl)-5-((methylamino)methyl)phenyl)benzenesulfonamide] | 1 to 5 |
| NCc1ccc(-c2cc[nH]n2)c(NS(=O)(=O)c2ccsc2)c1 [ID-8, N-(5-(aminomethyl)-2-(1H-pyrazole-3-yl)phenyl)thiophene-3-sulfonamide] | 1 to 5 |

Next, values leading:

| IC50 [µM] | Structure (SMILES) |
| --- | --- |
| < 1 | CCCC(N)c1ccc(NS(=O)(=O)c2ccccc2)c(-c2ccco2)c1 (stereo not shown) [IU-4, N-(4-(1-aminobutyl)-2-(furan-2-yl)phenyl)benzenesulfonamide] |
| < 1 | CCC(N)c1ccc(NS(=O)(=O)c2ccccc2)c(-c2ccco2)c1 (stereo not shown) [IU-3, N-(4-(1-aminopropyl)-2-(furan-2-yl)phenyl)benzenesulfonamide] |
| < 1 | NC(c1ccc(NS(=O)(=O)c2ccccc2)c(-c2ccco2)c1)C1CC1 (stereo not shown) [IU-6, N-(4-(amino(cyclopropyl)methyl)-2-(furan-2-yl)phenyl)benzenesulfonamide] |
| 1 to 5 | CNC(C)c1ccc(NS(=O)(=O)c2ccccc2)c(-c2ccco2)c1 (stereo not shown) [IV-1, N-(2-(furan-2-yl)-4-(1-(methylamino)ethyl)phenyl)benzenesulfonamide] |
| 5 to 10 | CNCc1ccc(-n2ccnn2)c(NS(=O)(=O)c2ccccc2)c1 [IQ-4, N-(5-((methylamino)methyl)-2-(1H-1,2,3-triazol-1-yl)phenyl)benzenesulfonamide] |
| < 1 | CC(N)c1ccc(-c2ccco2)c(NS(=O)(=O)c2ccccc2)c1 (stereo not shown) [IU-9, N-(5-(1-aminoethyl)-2-(furan-2-yl)phenyl)benzenesulfonamide] |
| 1 to 5 | CNCc1ccc(-n2nccn2)c(NS(=O)(=O)c2ccccc2)c1 [IQ-3, N-(5-((methylamino)methyl)-2-(2H-1,2,3-triazol-2-yl)phenyl)benzenesulfonamide] |
| 1 to 5 | CNC(C)c1ccc(-c2ccco2)c(NS(=O)(=O)c2ccccc2)c1 (stereo not shown) [IV-2, N-(2-(furan-2-yl)-5-(1-(methylamino)ethyl)phenyl)benzenesulfonamide] |
| 1 to 5 | CN(C)Cc1ccc(NS(=O)(=O)c2ccsc2)c(-c2ccco2)c1 [IJ-1, N-(4-((dimethylamino)methyl)-2-(furan-2-yl)phenyl)thiophene-3-sulfonamide] |
